Legend:
[1] = test system: HEK-293 (human embryonic kidney cells); assay: MTT cell viability assay, HEK-293; format: cell-based; conditions: HEK293, 48 h, 2 days incubation, non-tumor cell line, average ±SD of three experiments
Protocol: (§1) The effects of triazole derivatives 1–26 on the cell viability were determined by MTT assay, and the IC50 values were determined toward the human tumor cell lines HT-29 (colon adenocarcinoma), A-549 (lung adenocarcinoma), and MCF-7 (breast adenocarcinoma), as well as toward the non-tumor cell line HEK-293 (human embryonic kidney cells).
(§2) In 96-well plates, 3 × 10^3 (A549 and HEK-293) or 5 × 10^3 (HT-29, MCF-7) cells per well were incubated with serial dilutions of the tested compounds in a total volume of 100 μL of their growth media. The 3-(4,5-dimethylthiazol-2-yl)-2,5-diphenyltetrazolium bromide (MTT; Sigma Chemical Co.) dye reduction assay in 96-well microplates was used. After 2 days of incubation (37 °C, 5% CO2 in a humid atmosphere), 10 μL of MTT (5 mg/mL in phosphate-buffered saline, PBS) was added to each well, and the plate was incubated for a further 3 h (37 °C). After that, the supernatant was discarded and replaced by 100 µL of DMSO to dissolve formazan crystals. The absorbance was then read at 550 nm by spectro-photometry. For all concentrations of compound, cell viability was expressed as the percentage of the ratio between the mean absorbance of treated cells and the mean absorbance of untreated cells. Three independent experiments were performed, and the IC50 values (i.e., concentration half inhibiting cell proliferation) were graphically determined by using GraphPad Prism 4 software (2019).

[2] = biological target: T1, PD-L1 (Homo sapiens, UniProt Q9NZQ7); assay: Protein thermal shift (PTS) assay; format: binding
T1 construct: purchased ab167713
T1 sequence (Q9NZQ7 19-290): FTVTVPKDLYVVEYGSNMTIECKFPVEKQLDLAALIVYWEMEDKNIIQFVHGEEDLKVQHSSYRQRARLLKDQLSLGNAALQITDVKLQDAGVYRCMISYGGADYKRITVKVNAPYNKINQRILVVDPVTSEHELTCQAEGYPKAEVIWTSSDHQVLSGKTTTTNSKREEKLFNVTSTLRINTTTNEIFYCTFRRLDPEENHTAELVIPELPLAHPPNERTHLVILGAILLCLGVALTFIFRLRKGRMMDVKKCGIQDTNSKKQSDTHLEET
Description: This assay measures the melting point (Tm) of the target protein which is a proxy of its stability that can be altered by the binding of a ligand. A change in the melting point relative to the unliganded form implies that a ligand has bound itself to the targeted protein. According to the fundamentals of this technique, an increase in Tm means that the binding of the ligand leads to a stabilization of the target protein, while a decrease in Tm is probably due to the fact that the binding between the ligand and its target leads to a destabilization of the protein. In this case, the tested compounds were able to change the PD-L1 melting temperature.
PTS assay was performed by following the instructions indicated in Protein Thermal ShiftTM Dye Kit (Applied Biosystems reference 4461146), using 2 μL of a 0.1 mg/mL of an aqueous solution of PD-L1 (reference ab167713) and 1.5 μL of a 0.1 mg/mL aqueous solution of the corresponding product. The melting curves were registered by a StepOneTM Real-Time PCR System.

[3] = biological target: T2, membrane PD-L1 (mPD-L1) (Homo sapiens, UniProt Q9NZQ7); assay: Membrane PD-L1 relative quantification by flow cytometry; format: cell-based; conditions: 24 h, 100 or 10 μM (Table 7), percentage referred to DMSO control
T2 construct: endogenous in cells; host or cells: HT-29, A-549, MCF-7
T2 sequence (Q9NZQ7 19-290): as above
Protocol: Based on antiproliferative activity of synthetized derivatives, we decided to study the effect of the amino derivatives 14–26 on the expression of both membrane targets PD-L1 and VEGFR-2 (mPD-L1 and mVEGFR-2). The evaluation was performed on three cancer cell lines (HT-29, A-549, and MCF-7) by flow cytometry after 24 h of treatment with the corresponding compounds. Compounds were used at a 100 or 10 μM concentration depending on their IC50 value (see Table 1 in Materials and Methods section). The presence of both targets in the membrane was relatively determined by using DMSO-treated cells as a negative control.
(§3) To study the effect of the compounds on every biological target in cancer cell lines the compounds were used at a 100 or 10 μM dose, depending on their IC50 and the treated cell line.
(§4) For the assay, 10^5 cells per well were incubated for 24 h with the corresponding dose of the tested compound in a total volume of 500 μL of their growth media.
To detect membrane PD-L1 and VEGFR-2, after the cell treatments, they were collected, fixed with 4% in PBS paraformaldehyde, and stained with FITC Mouse monoclonal Anti-Human VEGFR-2 (ab184903) and Alexa Fluor® 647 Rabbit monoclonal Anti-PD-L1 (ab215251).

[4] = test system: A-549 (lung adenocarcinoma); assay: MTT cell viability assay, A-549; format: cell-based; conditions: Homo sapiens, A549, 48 h, 2 days incubation, average ±SD of three experiments
Protocol: as §1, §2

[5] = test system: HT-29 cells co-cultured with Jurkat T cells; assay: Co-culture HT-29 + PD-1 Jurkat T cells: living HT-29 cells; format: cell-based, human; conditions: 100 μM, 24 h; related to non-treated samples
Protocol: (§5) Cellular PD-1/PD-L1 blocking activity was studied in a co-culture system with PD-1 Jurkat T cells stimulated by interferon γ and PD-L1-expressing cancer cells. Thereby, we selected chloro derivatives 21–23 to study the proliferation of cancer cells co-cultured in the presence of PD-1 expressing Jurkat T cells in order to evaluate whether the observed PD-L1 inhibition is translated to the blockage of PD-1/PD-L1 system. […] Thus, tumor cells HT-29 were treated for 24 h with the selected compounds at 100 μM in the presence of Jurkat T cells and then living cells were counted by using cytometry and a Neubauer chamber.

[6] = test system: MCF-7 (breast adenocarcinoma); assay: MTT cell viability assay, MCF-7; format: cell-based; conditions: Homo sapiens, MCF7, 48 h, 2 days incubation, average ±SD of three experiments
Protocol: as §1, §2

[7] = test system: HT-29 (colon adenocarcinoma); assay: MTT cell viability assay, HT-29; format: cell-based; conditions: Homo sapiens, HT-29, 48 h, 2 days incubation, average ±SD of three experiments
Protocol: as §1, §2

[8] = biological target: T3, total PD-L1 (tPD-L1) (Homo sapiens, UniProt Q9NZQ7); assay: Total PD-L1 relative quantification by flow cytometry; format: cell-based; conditions: for tPD-L1 relative detection, A-549 / tPD-L1 relative detection, HT-29 / tPD-L1 relative detection, MCF-7: 24 h, 100 or 10 μM (Table 7), relative to DMSO control
T3 construct: endogenous in cells; host or cells: HT-29, A-549, MCF-7
T3 sequence (Q9NZQ7 19-290): as above
Protocol: (§6) The study was carried out again on HT-29, A-549, and MCF-7 cell lines by flow cytometry after 24 h of treatment with the corresponding compounds. The presence of the targets in the whole cell were relatively determined by using DMSO-treated cells as a negative control and BMS-8 as a positive one for PD-L1 (Table 3).
as §3, §4
(§7) For the detection of total PD-L1, VEGFR-2, and c-Myc, the procedure was the same as for membrane targets, but after fixation, a treatment with 0,5% in PBS TritonTM X-100 was performed. The antibodies used for PD-L1 and VEGFR-2 were the ones previously described, and for the detection of c-Myc, it was FITC Rabbit monoclonal anti-c-Myc (ab223913).

[9] = test system: Jurkat T cells; assay: Co-culture HT-29 + PD-1 Jurkat T cells: living Jurkat cells; format: cell-based; conditions: 100 μM, 24 h; related to non-treated samples
Protocol: as §5

[10] = test system: c-Myc; assay: c-Myc relative quantification by flow cytometry; format: cell-based, human; conditions: for c-Myc relative detection, A-549 / c-Myc relative detection, HT-29 / c-Myc relative detection, MCF-7: 24 h, 100 or 10 μM (Table 7), relative to DMSO control
Protocol: as §6, §3, §4, §7

[11] = biological target: T4, membrane VEGFR-2 (mVEGFR-2) (Homo sapiens, UniProt P35968); assay: Membrane VEGFR-2 relative quantification by flow cytometry; format: cell-based; conditions: 24 h, 100 or 10 μM (Table 7), sorafenib 10 μM, percentage referred to DMSO control
T4 construct: endogenous in cells; host or cells: HT-29, A-549, MCF-7
T4 sequence (P35968 20-1356): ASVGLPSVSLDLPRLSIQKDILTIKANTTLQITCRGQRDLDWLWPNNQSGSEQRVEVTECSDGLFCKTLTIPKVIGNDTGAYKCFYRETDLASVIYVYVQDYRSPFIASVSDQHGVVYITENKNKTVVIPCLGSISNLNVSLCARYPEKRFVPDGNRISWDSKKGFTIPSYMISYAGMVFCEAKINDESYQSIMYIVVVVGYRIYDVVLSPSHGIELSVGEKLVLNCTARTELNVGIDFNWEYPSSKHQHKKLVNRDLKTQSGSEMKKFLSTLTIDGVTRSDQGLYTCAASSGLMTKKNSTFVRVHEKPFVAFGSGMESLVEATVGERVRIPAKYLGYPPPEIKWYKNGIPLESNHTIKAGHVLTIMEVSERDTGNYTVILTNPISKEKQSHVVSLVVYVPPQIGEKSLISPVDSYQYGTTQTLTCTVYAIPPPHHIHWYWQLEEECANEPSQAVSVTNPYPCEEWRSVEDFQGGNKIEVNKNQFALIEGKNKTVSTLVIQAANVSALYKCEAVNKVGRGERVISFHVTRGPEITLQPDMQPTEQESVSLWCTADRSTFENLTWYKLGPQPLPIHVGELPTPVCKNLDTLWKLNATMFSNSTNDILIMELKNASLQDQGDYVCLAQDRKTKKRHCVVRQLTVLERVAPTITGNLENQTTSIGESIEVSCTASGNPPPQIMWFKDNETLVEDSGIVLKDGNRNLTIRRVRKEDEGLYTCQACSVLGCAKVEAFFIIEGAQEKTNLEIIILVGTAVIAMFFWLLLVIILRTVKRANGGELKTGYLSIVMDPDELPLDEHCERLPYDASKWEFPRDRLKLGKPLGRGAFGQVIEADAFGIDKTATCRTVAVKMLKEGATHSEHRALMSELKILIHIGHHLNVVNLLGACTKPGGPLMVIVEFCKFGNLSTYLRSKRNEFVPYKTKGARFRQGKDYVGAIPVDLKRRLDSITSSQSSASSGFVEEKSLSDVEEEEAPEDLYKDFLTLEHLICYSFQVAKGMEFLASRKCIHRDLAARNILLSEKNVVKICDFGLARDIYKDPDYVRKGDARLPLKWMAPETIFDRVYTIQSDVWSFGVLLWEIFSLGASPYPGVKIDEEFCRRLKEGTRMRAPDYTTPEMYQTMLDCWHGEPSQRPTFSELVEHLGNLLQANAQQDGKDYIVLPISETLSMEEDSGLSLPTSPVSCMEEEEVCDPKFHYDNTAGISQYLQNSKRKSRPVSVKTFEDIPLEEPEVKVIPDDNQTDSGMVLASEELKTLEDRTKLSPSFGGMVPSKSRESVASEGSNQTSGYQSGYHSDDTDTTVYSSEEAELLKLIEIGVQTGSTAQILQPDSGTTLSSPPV
Protocol: The presence of both targets in the membrane was relatively determined by using DMSO-treated cells as a negative control.
as §4

[12] = A-549, compared to non-treated cells

Compound	IC50 [1]	mPD-L1 relative detection, A-549 [3]	mPD-L1 relative detection, HT-29 [3]	mPD-L1 relative detection, MCF-7 [3]	IC50 [4]	IC50 [6]	IC50 [7]	tPD-L1 relative detection, A-549 ([8]; A-549)	tPD-L1 relative detection, HT-29 [8]	tPD-L1 relative detection, MCF-7 [8]	c-Myc relative detection, A-549 ([10]; A-549)	c-Myc relative detection, HT-29 [10]	c-Myc relative detection, MCF-7 [10]	melting point	mVEGFR-2 relative detection, A-549 [11]	mVEGFR-2 relative detection, HT-29 [11]	mVEGFR-2 relative detection, MCF-7 [11]	other results
Cc1c(COc2ccc(CN3CCCCC3C(=O)O)cc2Br)cccc1-c1ccccc1 (stereo not drawn) [BMS-8, reference compound]	60 ± 10 µM	99 ± 10%	95 ± 12%	90 ± 8%	6 ± 1 µM	20 ± 3 µM	19 ± 2 µM	66 ± 8%	62 ± 3%	68 ± 5%	135 ± 15%	99 ± 7%	60 ± 7%					PTS Tm ([2]; PD-L1 melting temperature, DMSO 34 °C): 38 °C; PTS ΔTm ([2]; shift of PD-L1 melting temperature vs DMSO): +4 °C; Relative number of living HT-29 cells in co-culture with Jurkat T [5]: 51 ± 8%; Relative number of living Jurkat cells in co-culture with HT-29 [9]: 110 ± 4%
Nc1ccc(-c2cn(Cc3ccccc3)nn2)cc1 [Compound 14, 4-(1-benzyl-1H-1,2,3-triazol-4-yl)aniline]	> 100 µM	>100%	>100%	94 ± 5%	> 100 µM	1 µM	2 ± 1 µM	98 ± 3%	>100%	>100%	>100%	>100%	60 ± 3%	180 to 181 °C	>100%	95 ± 6%	>100%	
Nc1ccc(-c2cn(Cc3ccc(Br)cc3)nn2)cc1 [Compound 26, 4-(1-(4-bromobenzyl)-1H-1,2,3-triazol-4-yl)aniline]	> 100 µM	76 ± 4%	94 ± 15%	84 ± 23%	8 ± 2 µM	8 ± 1 µM	14 ± 6 µM	80 ± 12%	51 ± 2%	>100%	82 ± 4%	>100%	64 ± 6%	169 to 170 °C	>100%	85 ± 7%	>100%	Inhibition of c-Myc, A-549 [10, 12]: 20%
Nc1ccc(-c2cn(Cc3ccccc3Br)nn2)cc1 [Compound 24, 4-(1-(2-bromobenzyl)-1H-1,2,3-triazol-4-yl)aniline]	> 100 µM	88 ± 12%	86 ± 11%	91 ± 10%	0.45 µM	5 ± 1 µM	3.7 µM	56 ± 7%	45 ± 3%	>100%	>100%	>100%	57 ± 8%	133 to 134 °C	>100%	84 ± 8%	>100%	Inhibition of total PD-L1, A-549 [8, 12]: ~50%
COc1ccccc1Cn1cc(-c2ccc(N)cc2)nn1 [Compound 18, 4-(1-(2-methoxybenzyl)-1H-1,2,3-triazol-4-yl)aniline]	> 100 µM	89 ± 9%	61 ± 22%	81 ± 2%	> 100 µM	> 100 µM	> 100 µM	91 ± 4%	70 ± 11%	>100%	>100%	>100%	53 ± 3%	166 to 167 °C	>100%	93 ± 1%	>100%	
